{"source": "patent US11931335B2", "about": "“Enhancing autophagy or increasing longevity by administration of urolithins or precursors thereof” (Amazentis SA, priority 2012, dated 2024)", "key": {"[1]": {"tested_on": "C. elegans fed vps-34 RNAi", "assay": "Lifespan with RNAi against vps-34", "type": "in vivo", "conditions": "50 μM; vs empty vector; FIG. 10B", "procedure": "Lifespan tests were performed as described. Mouchiroud L et al. (2011) Aging Cell 10:39-54. Briefly, worms were observed using a Nikon SMZ1500 stereomicroscope (Nikon, Melville, NY, USA). Briefly, 10 L4 worms were transferred on plates containing NGM medium with vehicle (DMSO 0.1%, final concentration) or urolithin A dissolved in DMSO (final concentration 50 μM) and seeded with E. coli RNAi clones as indicated. After 3 days (corresponding to day 0), newly developed 60-100 L4 worms were used per condition, scored and transferred to fresh plates every 3 days starting from day 1 (young adult worms). All lifespan experiments were performed at 20° C.\nSurvival analyses were performed using the Kaplan Meier method and the significance of differences between survival curves calculated using the log rank test. Differences between two groups were assessed using two-tailed t-tests. Analysis of variance, assessed by Bonferroni's multiple comparison test, was used when comparing more than two groups. The statistical software used was GraphPad Prism 5 (GraphPad Software, Inc.) and all p-values <0.05 were considered significant.\nGene silencing was carried out as previously described by using the RNA interference (RNAi) process. Mouchiroud L et al. (2011) Aging Cell 10:39-54. In C. elegans, RNAi is made by feeding. […]"}, "C. elegans": {"tested_on": "C. elegans", "assay": "Pharyngeal pumping in C. elegans", "type": "in vivo", "conditions": "day 14 (aged worms); 50 μM; FIG. 11", "procedure": "To examine the effect of urolithins on muscle function, pharyngeal pumping was examined in C. elegans worms at day 7 and day 14. Worms were observed using a Nikon SMZ1500 stereomicroscope (Nikon, Melville, NY, USA). Ten L4 worms were transferred on plates containing NGM medium with vehicle (DMSO 0.1%, final concentration) or the compound of interest (urolithin A (UA), urolithin B (UB), urolithin C (UC), urolithin D (UD)) dissolved in DMSO (final concentration 50 μM) and seeded with E. coli RNAi clones as indicated. After 3 days (corresponding to day 0), newly developed 60 to 100 L4 worms were used per condition, scored and transferred to fresh plates every 3 days starting from day 1 (young adult worms). Experiments were performed at 20° C.\nThe pharyngeal pumping rates at day 7 and 14 were measured for 10 worms by transferring single worms to an unseeded plate and scoring for pharyngeal pumping under a dissecting microscope for 30 seconds. The pharyngeal pumping rates were then computed by extrapolating the pumping made by worms during this 30 second period."}, "C57BL/6J mice": {"tested_on": "C57BL/6J mice", "assay": "Spontaneous running wheel activity in young mice", "type": "in vivo, mouse", "conditions": "for increase over untreated controls in the cumulative distance covered: 55 mg/kg/day in food, 11 weeks", "procedure": "To examine the effect of urolithin A treatment on activity and muscle function in mammals, 10-week-old C57BL/6J mice were treated with either a standard rodent diet or a diet containing urolithin A mixed with food to reach a dosing of 55 mg/kg/day delivered to the mice. Following 11 weeks of treatment with urolithin A, a 23 cm in diameter running wheel was placed in the cage of each mouse. Spontaneous exercise activity was measured over a five day period at 20 min intervals, allowing the capture of the circadian rhythm of the exercise activity."}, "[2]": {"tested_on": "undifferentiated C2C12 mouse myoblasts", "assay": "LC3B flow cytometry in C2C12 myoblasts", "type": "cell-based", "conditions": "for LC3B expression (LC3B-FITC fluorescence): 10 μM, 50 μM and 100 μM, 24 hours, FIG. 25", "procedure": "To determine the ability of urolithin A to induce autophagy in mouse muscle cells, undifferentiated C2C12 mouse myoblasts were seeded in T25 flasks and incubated overnight. Cells were incubated in 5% CO2 at 37° C. These cells were treated with one of the urolithins-urolithin A (UA), urolithin B (UB), urolithin C (UC) or urolithin D (UD)—dissolved in a 0.1% solution of DMSO for 24 hours. In one experiment UA, UB, UC and UD were dosed at a concentration of 100 μM for C2C12 myoblast treatment. In a separate study, C2C12 myoblasts were incubated at increasing concentrations of UA (10 μM, 50 μM and 100 μM). For each experiment a control culture was treated with 0.1% DMSO for the same period and served as the untreated control. In the final 30 minutes of incubation, lysosome degradation inhibitor was added to the culture. The cells were then washed with phosphate buffer solution and then treated with a 1% solution of trypsin enzyme to remove the adhesive cells from the cell culture dishes. The cells were then treated with EMD Millipore selective permeabilization reagent to permeabilize the cells so as to make the internal cellular proteins accessible to antibody treatment. Cells were then incubated with antibody to LC3B according to kit protocol (EMD Millipore FlowCellect™ Autophagy LC3 Antibody-based Assay Kit (Cat no. FCCH100171)). The cells were then washed and resuspended in the kit assay buffer. The resulting cells were then run through a flow cytometer and LC3B-FITC fluorescence was quantified to measure the level of LC3B in C2C12 cells for the various treatments. When cells undergo autophagy their intracellular levels of LC3-II increase which is detected by this method. This autophagy can be detected by fluorescent antibody labeling of LC3B, which can be measured quantitatively using flow cytometry. An increase in cellular autophagy is reflected by an increasing signal in the histogram of LC3B FITC."}}, "note": "Entries after “also recorded” stand apart in the source; their conditions may differ.", "data": [{"compound": "O=c1oc2cc(O)ccc2c2ccc(O)cc12", "note": "[Urolithin A, urolithin A]", "values": [{"measurement": "lifespan extension by urolithin A under vps-34 RNAi", "setting": "[1]", "result": "suppressed; also recorded: totally suppress the lifespan phenotype"}, {"measurement": "pharyngeal pumping (muscle function)", "setting": "C. elegans", "result": "decreases the age related decline in muscle activity"}, {"measurement": "increase over untreated controls in the cumulative distance covered", "setting": "C57BL/6J mice; final two days", "result": 29, "unit": "%"}, {"measurement": "increase over untreated controls in the cumulative distance covered", "setting": "C57BL/6J mice; initial 3 days, FIG. 20", "result": 25, "unit": "%"}, {"measurement": "increase in spontaneous voluntary running on a running wheel", "setting": "C57BL/6J mice; 55 mg/kg/day, five-day period, FIG. 20", "result": "at least 25%"}, {"measurement": "LC3B expression (LC3B-FITC fluorescence)", "setting": "[2]", "result": "dose dependent"}, {"measurement": "LC3B expression (LC3B-FITC fluorescence)", "setting": "[2]; listed as UA", "result": "dose response"}, {"measurement": "LC3B signal (shift of the histogram)", "setting": "[2]; 100 μM, 24 hrs, FIG. 26, listed as UA", "result": "increasing signal of LC3B; also recorded: increase in autophagy"}]}]}
